# Experimental data: ChEMBL document CHEMBL5214927, “Recent advance on carbamate-based cholinesterase inhibitors as potential multifunctional agents against Alzheimer's disease” (Eur J Med Chem, 2022)
# Columns and labels:
# [1] = molecular target: T1, Acetylcholinesterase (Homo sapiens, UniProt P22303); test: Inhibition of AChE (unknown origin)
# [2] = molecular target: T2, Cholinesterase (Homo sapiens, UniProt P06276); test: Inhibition of BChE (unknown origin)
# [3] = molecular target: T3, Cholinesterases; ACHE & BCHE (Homo sapiens) (UniProt P06276+P22303); test: Selectivity index, ratio of IC50 for AChE (unknown origin) to BChE (unknown origin); assay type: protein assay
# [4] = molecular target: T4, Acetylcholinesterase (Electrophorus electricus, UniProt O42275); test: Inhibition of electric eel AChE using acetylthiocholine iodide as substrate incubated for 30 mins by Ellman's method
# [5] = molecular target: T4, Acetylcholinesterase; test: Binding affinity to electric eel AChE assessed as inhibition constant using acetylthiocholine iodide as substrate incubated for 30 mins by Ellman's method
# [6] = molecular target: Fatty-acid amide hydrolase 1 (Rattus norvegicus, UniProt P97612); test: Displacement of [14C]-ethanolamine from FAAH derived from rat brain membrane fraction preincubated for 20 mins followed by susbstrate addition by scintillation counting method; assay type: cell membranes
# [7] = molecular target: T3, Cholinesterases; ACHE & BCHE (Homo sapiens); test: Selectivity index, ratio of IC50 for recombinant human serum AChE to IC50 for recombinant human serum BChE; assay type: protein assay
# [8] = molecular target: T3, Cholinesterases; ACHE & BCHE (Homo sapiens); test: Selectivity index, ratio of IC50 for recombinant human serum BChE to IC50 for recombinant human serum AChE; assay type: protein assay
# [9] = molecular target: T1, Acetylcholinesterase; test: Inhibition of recombinant human serum AChE using acetylthiocholine iodide as substrate preincubated for 20 mins followed by substrate addition by Ellman's method
# [10] = molecular target: T2, Cholinesterase; test: Inhibition of recombinant human serum BChE using acetylthiocholine iodide as substrate preincubated for 20 mins followed by substrate addition by Ellman's method
# [11] = molecular target: T1, Acetylcholinesterase; test: Inhibition of human AChE
# [12] = molecular target: T2, Cholinesterase; test: Inhibition of human BChE
# [13] = molecular target: T3, Cholinesterases; ACHE & BCHE (Homo sapiens); test: Selectivity index, ratio of IC50 for human AChE to IC50 for human BChE; assay type: protein assay
# [14] = molecular target: T1, Acetylcholinesterase; test: Inhibition of human whole red blood cells AChE using acetylthiocholine iodide as substrate incubated for 25 mins by Ellman's method
# [15] = molecular target: T2, Cholinesterase; test: Inhibition of human whole red blood cells BChE using butyrylthiocholine iodide as substrate incubated for 25 mins by Ellman's method
# [16] = molecular target: T3, Cholinesterases; ACHE & BCHE (Homo sapiens); test: Selectivity index, ratio of IC50 for human whole red blood cells BChE to IC50 for human whole red blood cells AChE
# [17] = molecular target: T5, Acetylcholinesterase (Rattus norvegicus, UniProt P37136); test: Inhibition of rat AChE by Ellman's method
# T5 sequence (P37136 whole entry): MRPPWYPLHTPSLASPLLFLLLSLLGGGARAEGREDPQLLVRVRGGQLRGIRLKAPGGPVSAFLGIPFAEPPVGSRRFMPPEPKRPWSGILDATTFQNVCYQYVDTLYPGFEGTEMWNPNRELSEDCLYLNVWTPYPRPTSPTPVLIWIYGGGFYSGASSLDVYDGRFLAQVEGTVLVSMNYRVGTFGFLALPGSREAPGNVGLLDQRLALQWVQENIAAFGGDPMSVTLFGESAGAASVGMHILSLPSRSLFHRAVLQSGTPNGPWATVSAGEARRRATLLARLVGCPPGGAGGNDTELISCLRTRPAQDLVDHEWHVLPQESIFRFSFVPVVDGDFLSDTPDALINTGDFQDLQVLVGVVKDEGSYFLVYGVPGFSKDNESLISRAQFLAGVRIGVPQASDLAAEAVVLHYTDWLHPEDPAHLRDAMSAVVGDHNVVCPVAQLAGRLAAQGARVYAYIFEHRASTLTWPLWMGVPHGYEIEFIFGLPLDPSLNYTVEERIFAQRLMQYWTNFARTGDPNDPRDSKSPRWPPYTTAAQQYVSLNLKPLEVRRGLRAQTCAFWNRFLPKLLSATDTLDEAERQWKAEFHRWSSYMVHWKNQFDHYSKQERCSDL
# [18] = molecular target: T6, Amine oxidase [flavin-containing] A (Homo sapiens, UniProt P21397); test: Inhibition of MAO-A (unknown origin)
# T6 sequence (P21397 whole entry): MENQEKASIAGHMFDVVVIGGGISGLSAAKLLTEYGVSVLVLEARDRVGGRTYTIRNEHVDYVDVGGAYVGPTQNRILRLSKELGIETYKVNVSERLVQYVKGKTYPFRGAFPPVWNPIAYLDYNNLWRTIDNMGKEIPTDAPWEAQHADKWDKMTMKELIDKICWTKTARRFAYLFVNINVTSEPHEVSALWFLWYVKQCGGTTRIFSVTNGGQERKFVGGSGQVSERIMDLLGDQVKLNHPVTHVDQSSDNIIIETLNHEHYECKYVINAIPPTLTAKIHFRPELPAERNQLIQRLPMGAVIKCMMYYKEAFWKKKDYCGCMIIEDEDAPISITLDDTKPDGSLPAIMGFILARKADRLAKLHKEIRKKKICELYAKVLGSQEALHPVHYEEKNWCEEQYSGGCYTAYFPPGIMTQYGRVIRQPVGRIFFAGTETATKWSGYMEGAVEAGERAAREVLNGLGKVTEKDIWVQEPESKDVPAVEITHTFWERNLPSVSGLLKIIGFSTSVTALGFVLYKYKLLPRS
# [19] = molecular target: T7, Amine oxidase [flavin-containing] B (Homo sapiens, UniProt P27338); test: Inhibition of MAO-B (unknown origin)
# T7 sequence (P27338 whole entry): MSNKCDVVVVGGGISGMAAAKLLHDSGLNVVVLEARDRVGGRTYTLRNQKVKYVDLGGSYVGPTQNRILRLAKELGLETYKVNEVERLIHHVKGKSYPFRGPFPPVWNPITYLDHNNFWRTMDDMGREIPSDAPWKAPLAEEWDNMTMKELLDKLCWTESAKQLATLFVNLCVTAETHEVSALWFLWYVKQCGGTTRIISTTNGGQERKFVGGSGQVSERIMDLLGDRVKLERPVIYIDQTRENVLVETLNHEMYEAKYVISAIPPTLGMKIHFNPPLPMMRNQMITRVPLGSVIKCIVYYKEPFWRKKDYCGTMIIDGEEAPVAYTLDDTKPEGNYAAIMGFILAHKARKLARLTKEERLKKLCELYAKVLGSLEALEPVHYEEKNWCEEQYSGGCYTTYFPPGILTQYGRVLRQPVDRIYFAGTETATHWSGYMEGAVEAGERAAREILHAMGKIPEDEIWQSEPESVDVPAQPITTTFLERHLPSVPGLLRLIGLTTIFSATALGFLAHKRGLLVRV
# [20] = molecular target: T2, Cholinesterase; test: Inhibition of human serum BChE using butyrylthiocholine as substrate by Ellman's method
# [21] = molecular target: T1, Acetylcholinesterase
# Description: Inhibition of human erythrocyte AChE using acetylthiocholine iodide as substrate preincubated for 30 mins followed by substrate addition measured after 5 mins by Ellman's method
# [22] = molecular target: T1, Acetylcholinesterase; test: Inhibition of recombinant human AChE
# [23] = molecular target: T5, Acetylcholinesterase; test: Inhibition of rat AChE
# [24] = molecular target: T2, Cholinesterase; test: Inhibition of recombinant human serum BChE using butyrylthiocholine iodide as substrate preincubated for 20 mins followed by substrate addition measured after 5 mins by Ellman's method
# [25] = molecular target: T1, Acetylcholinesterase; test: Inhibition of recombinant human serum AChE using acetylthiocholine iodide as substrate preincubated for 20 mins followed by substrate addition measured after 5 mins by Ellman's method
# [26] = molecular target: Cholinesterase (Equus caballus, UniProt P81908); test: Inhibition of equine BChE using acetylthiocholine iodide as substrate preincubated for 10 mins followed by substrate addition by Ellman's method
# [27] = molecular target: T5, Acetylcholinesterase; test: Inhibition of Sprague-Dawley rat cortex AChE using acetylthiocholine iodide as substrate incubated for 15 mins in presence of iso-OMPA inhibitor by Ellman's method
# [28] = molecular target: T1, Acetylcholinesterase; test: Binding affinity to AChE (unknown origin) assessed as inhibition constant preincubated for 60 mins followed by substrate addition measured after 60 mins by colorimetric method
# [29] = molecular target: Beta-secretase 1 (Homo sapiens, UniProt P56817); test: Inhibition of BACE1 (unknown origin) using A-beta-PP as substrate by fluorescence based assay
# Sequence of Beta-secretase 1 (P56817 whole entry): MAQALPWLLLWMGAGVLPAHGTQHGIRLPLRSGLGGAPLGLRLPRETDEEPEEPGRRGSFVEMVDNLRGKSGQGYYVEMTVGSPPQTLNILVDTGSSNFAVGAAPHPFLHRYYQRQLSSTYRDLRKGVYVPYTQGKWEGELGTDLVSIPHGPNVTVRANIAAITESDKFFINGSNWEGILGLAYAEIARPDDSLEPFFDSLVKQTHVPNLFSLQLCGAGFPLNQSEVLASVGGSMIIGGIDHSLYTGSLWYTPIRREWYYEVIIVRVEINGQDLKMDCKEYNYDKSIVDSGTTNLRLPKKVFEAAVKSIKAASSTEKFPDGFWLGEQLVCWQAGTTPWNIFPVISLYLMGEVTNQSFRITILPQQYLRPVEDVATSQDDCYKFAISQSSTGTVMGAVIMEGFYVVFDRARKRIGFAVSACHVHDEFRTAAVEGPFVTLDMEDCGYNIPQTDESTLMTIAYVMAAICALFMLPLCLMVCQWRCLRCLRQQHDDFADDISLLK
# Sequence of Cholinesterase (Equus caballus, UniProt P81908) (P81908 whole entry): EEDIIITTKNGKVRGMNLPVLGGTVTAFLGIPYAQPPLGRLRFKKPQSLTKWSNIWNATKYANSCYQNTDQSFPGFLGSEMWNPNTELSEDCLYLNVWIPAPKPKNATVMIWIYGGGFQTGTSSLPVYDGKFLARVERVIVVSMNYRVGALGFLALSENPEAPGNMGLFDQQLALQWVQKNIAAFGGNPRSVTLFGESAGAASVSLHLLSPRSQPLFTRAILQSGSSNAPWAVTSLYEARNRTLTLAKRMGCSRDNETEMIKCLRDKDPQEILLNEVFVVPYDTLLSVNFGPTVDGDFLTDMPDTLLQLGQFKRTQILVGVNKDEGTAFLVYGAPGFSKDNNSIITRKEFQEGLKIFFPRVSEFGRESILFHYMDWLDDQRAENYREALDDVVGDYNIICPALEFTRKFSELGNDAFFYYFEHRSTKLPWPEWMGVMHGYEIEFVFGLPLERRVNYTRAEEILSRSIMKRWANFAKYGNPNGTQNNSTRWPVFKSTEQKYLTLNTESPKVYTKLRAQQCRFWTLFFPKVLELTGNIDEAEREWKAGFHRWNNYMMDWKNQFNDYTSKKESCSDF
# T4 sequence (O42275 whole entry): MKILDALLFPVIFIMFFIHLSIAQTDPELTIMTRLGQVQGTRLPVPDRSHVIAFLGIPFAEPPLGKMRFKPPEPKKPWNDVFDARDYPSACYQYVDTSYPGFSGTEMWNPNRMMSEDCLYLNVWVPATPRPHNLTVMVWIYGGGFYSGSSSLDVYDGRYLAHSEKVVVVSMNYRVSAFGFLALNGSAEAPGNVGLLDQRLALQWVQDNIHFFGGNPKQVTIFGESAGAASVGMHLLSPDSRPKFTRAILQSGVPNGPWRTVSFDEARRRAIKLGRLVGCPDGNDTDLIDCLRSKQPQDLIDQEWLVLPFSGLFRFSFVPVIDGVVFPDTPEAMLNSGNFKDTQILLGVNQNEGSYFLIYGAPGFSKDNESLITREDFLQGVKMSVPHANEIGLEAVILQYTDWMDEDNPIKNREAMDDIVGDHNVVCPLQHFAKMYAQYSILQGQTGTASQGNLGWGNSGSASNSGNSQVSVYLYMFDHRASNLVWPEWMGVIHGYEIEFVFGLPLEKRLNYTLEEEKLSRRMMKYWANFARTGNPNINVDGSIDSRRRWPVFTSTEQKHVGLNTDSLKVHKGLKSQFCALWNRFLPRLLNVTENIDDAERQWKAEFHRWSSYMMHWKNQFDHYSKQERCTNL
# T3 sequence (P06276 whole entry, looked up): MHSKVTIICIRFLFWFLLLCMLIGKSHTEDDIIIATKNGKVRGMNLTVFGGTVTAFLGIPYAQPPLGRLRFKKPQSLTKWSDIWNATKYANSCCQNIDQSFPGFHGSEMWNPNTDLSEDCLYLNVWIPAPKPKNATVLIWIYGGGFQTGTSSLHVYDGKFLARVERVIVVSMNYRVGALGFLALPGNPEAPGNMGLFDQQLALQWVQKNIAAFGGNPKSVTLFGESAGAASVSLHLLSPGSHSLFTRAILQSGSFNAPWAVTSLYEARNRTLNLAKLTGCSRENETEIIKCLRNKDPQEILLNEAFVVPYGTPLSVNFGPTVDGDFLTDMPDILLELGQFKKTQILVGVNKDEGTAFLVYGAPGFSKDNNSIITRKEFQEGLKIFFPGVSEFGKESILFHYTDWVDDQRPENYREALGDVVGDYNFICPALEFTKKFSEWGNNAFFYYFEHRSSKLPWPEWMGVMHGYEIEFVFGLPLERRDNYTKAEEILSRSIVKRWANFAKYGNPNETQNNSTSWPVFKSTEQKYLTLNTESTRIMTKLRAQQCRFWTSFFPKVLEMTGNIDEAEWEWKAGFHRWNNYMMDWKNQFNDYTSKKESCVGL
# T3 sequence (P22303 whole entry, looked up): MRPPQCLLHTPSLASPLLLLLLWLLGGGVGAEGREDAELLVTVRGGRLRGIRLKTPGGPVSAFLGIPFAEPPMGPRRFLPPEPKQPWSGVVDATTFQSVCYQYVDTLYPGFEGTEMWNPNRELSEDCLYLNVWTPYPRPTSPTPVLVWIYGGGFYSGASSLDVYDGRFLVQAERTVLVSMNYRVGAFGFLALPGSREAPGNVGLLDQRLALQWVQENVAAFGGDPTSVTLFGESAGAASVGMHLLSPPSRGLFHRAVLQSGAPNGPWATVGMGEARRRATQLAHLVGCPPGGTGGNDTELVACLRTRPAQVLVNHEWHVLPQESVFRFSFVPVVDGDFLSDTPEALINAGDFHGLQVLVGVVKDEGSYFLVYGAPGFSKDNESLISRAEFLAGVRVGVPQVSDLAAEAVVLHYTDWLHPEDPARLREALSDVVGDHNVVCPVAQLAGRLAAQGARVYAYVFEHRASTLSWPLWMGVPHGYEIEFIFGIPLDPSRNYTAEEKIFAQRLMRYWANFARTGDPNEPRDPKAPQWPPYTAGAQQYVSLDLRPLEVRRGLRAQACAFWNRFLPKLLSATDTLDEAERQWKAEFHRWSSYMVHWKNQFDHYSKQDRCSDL
# T2 sequence (P06276 whole entry): as the sequence (P06276 whole entry, looked up) above
# T1 sequence (P22303 whole entry): as the sequence (P22303 whole entry, looked up) above
# Sequence of Fatty-acid amide hydrolase 1 (P97612 whole entry): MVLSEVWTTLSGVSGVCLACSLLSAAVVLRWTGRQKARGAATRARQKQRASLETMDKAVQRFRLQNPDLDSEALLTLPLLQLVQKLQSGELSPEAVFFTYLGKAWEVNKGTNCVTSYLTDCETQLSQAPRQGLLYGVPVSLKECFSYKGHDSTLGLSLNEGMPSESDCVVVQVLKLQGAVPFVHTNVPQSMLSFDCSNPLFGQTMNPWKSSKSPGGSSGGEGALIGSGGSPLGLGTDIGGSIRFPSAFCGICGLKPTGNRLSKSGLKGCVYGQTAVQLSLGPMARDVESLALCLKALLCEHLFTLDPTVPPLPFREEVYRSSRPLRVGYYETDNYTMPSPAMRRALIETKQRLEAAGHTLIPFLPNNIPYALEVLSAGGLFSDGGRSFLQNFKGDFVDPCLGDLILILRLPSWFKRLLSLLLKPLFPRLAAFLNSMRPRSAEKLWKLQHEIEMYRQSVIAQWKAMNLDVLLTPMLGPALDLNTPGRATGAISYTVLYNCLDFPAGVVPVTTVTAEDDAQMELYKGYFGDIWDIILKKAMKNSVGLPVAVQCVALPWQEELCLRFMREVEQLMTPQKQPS
compound,measurement,setting,value
CCNC(=O)Oc1ccc2c(c1)[C@]1(C)CCO[C@@H]1O2,IC50,[1],0.036 µM
same,IC50,[2],0.006 µM
same,Ratio IC50,[3],60
COC(=O)CCC/C=C\C/C=C\C/C=C\CCOC(=O)Nc1ccc(OC)cc1,IC50,[4],24.8 µM
same,Ki,[5],3.48 µM
CN(CCCOc1ccc2ccc(=O)oc2c1)Cc1cccc(OC(=O)NC2CCCCC2)c1,IC50,[6],0.00133 µM
same,Ratio IC50,[7],2.98
CNC(=O)Oc1cccc(CN(C)CCCCCCCOc2ccc(-c3cc(=O)c4ccccc4o3)cc2)c1,Ratio IC50,[8],96
same,IC50,[9],0.00073 µM
same,IC50,[10],0.0702 µM
COC(=O)CCC/C=C\C/C=C\C/C=C\CCOC(=O)Nc1ccc(Br)cc1,IC50,[4],19.2 µM
same,Ki,[5],1.1 µM
CCC(C)(C)NCC(O)c1cc(O)cc(OC(=O)N(C)C)c1 (centres undefined),IC50,[11],20 µM
same,IC50,[12],0.05 µM
same,Ratio IC50,[13],400
COc1ccc(NC(=O)Oc2ccc3c(c2)[C@]2(O)CCN(C(C)=O)[C@@H]2N3)cc1,IC50,[14],> 100 µM
same,IC50,[15],2.31 µM
same,Ratio IC50,[16],> 43
CC(C)c1ccc(NC(=O)Oc2ccc3c(c2)[C@]2(C)CCN(CCc4ccccc4)[C@@H]2N3C)cc1,IC50,[1],> 30 µM
same,Ratio IC50,[3],> 5000
CC/N=C1\CCc2c1n(C)c1ccc(OC(=O)NC)c(Cl)c21,IC50,[17],0.16 µM
same,IC50,[18],0.1 µM
same,IC50,[19],> 1000 µM
CC/N=C1\CCc2c1n(C)c1ccc(OC(=O)NC)c(Br)c21,IC50,[17],0.14 µM
same,IC50,[18],0.21 µM
same,IC50,[19],> 1000 µM
CN(CCCOc1ccc2c(=O)c3ccccc3oc2c1)Cc1cccc(OC(=O)NCCCCCCCCCN2CCOCC2)c1,IC50,[20],0.0293 µM
same,IC50,[21],0.0089 µM
C#CCNC1CCc2c(OC(=O)N(C)C)cccc21 (centres undefined),IC50,[18],0.053 µM
same,IC50,[19],0.26 µM
same,IC50,[22],86 µM
CN1CCN(C(=O)Oc2ccc(-c3coc4cc(OC(=O)N5CCN(C)CC5)ccc4c3=O)cc2)CC1,IC50,[23],1.2 µM
CNC(=O)Oc1cccc(CN(C)CCCCCCOc2ccc(C(=O)/C=C/c3cc(OC)c(OC)c(OC)c3)c(O)c2)c1,IC50,[24],0.0302 µM
same,IC50,[25],0.00133 µM
same,Ratio IC50,[8],23
CNC(=O)Oc1cccc(CN(C)CCCCCCOc2ccc3c(c2)O/C(=C\c2cc(OC)c(OC)c(OC)c2)C3=O)c1,IC50,[24],0.136 µM
same,IC50,[25],0.00052 µM
same,Ratio IC50,[8],261
C#CCN(C)C1CCc2c(OC(=O)N(C)CC)cccc21 (centres undefined),IC50,[12],14.9 µM
same,IC50,[18],0.79 µM
same,IC50,[19],0.027 µM
same,IC50,[22],4 µM
COC(=O)CCC/C=C\C/C=C\C/C=C\CCOC(=O)Nc1ccc(Cl)cc1,IC50,[4],20.2 µM
same,Ki,[5],2.62 µM
CCCCCCNC(=O)OCn1nc(-c2ccccc2OC)ccc1=O,IC50,[26],35 µM
COc1ccccc1-c1ccc(=O)n(COC(=O)Nc2ccc(C)cc2)n1,IC50,[26],34.5 µM
COC(=O)CCC/C=C\C/C=C\C/C=C\CCOC(=O)Nc1cccc(Cl)c1,IC50,[4],16.8 µM
same,Ki,[5],0.93 µM
CNC(=O)Oc1cccc(CN(C)CCCCCCCOc2ccc(-c3cc4ccccc4oc3=O)cc2)c1,Ratio IC50,[8],49
same,IC50,[9],0.0012 µM
same,IC50,[10],0.0594 µM
C#CCN(C)C1CCc2cccc(OC(=O)N(C)C)c21 (centres undefined),IC50,[18],7 µM
same,IC50,[19],0.33 µM
same,IC50,[22],730 µM
CCCCCCCNC(=O)OCn1nc(-c2ccccc2OC)ccc1=O,IC50,[26],12.8 µM
CN1CCN(C(=O)Oc2ccc(/C=C/c3cc(OC(=O)N4CCN(C)CC4)cc(OC(=O)N4CCN(C)CC4)c3)cc2)CC1,IC50,[27],6.97 µM
C#CCNC1CCc2c(OC(=O)N(C)CC)cccc21 (centres undefined),IC50,[12],2.15 µM
same,IC50,[18],0.019 µM
same,IC50,[19],0.83 µM
same,IC50,[22],150 µM
CNC(=O)Oc1cccc(CN(C)CCCCCCCOc2cccc(-c3cc(=O)c4ccccc4o3)c2)c1,Ratio IC50,[8],122
CC(=O)N1CC[C@@]2(O)c3cc(OC(=O)Nc4ccccc4)ccc3N[C@@H]12,IC50,[14],0.25 µM
same,IC50,[15],> 100 µM
same,Ratio IC50,[16],> 400
CNC(=O)Oc1cccc(CN(C)CCCCCCCOc2ccc3c(=O)c4ccccc4oc3c2)c1,IC50,[20],0.00032 µM
same,IC50,[21],0.0516 µM
CC1CCCCN1CCCNC(=O)c1cc(NC(=O)OC(C)(C)C)ccc1O (centres undefined),Ki,[28],0.17 µM
same,IC50,[29],0.0154 µM
C#CCN[C@@H]1CCc2ccc(OC(=O)N(C)CC)cc21,IC50,[12],4.1 µM
same,IC50,[18],0.77 µM
same,IC50,[19],2 µM
same,IC50,[22],1000 µM
CN[C@@H](CCOc1ccc([N+](=O)[O-])cc1)c1ccc(OC(=O)N(C)C)cc1,IC50,[23],0.101 µM
CN1c2ccc(OC(=O)NCC3CCCCC3)cc2[C@]2(C)CCN(CCc3ccccc3)[C@H]12,IC50,[1],2.5 µM
same,Ratio IC50,[3],1390
COc1cc(/C=C/c2ccc(OC(=O)N3CCN(C)CC3)cc2)cc(OC)c1,IC50,[27],8.58 µM
O=C(Oc1cc(O)c2c(=O)cc(-c3ccc(O)cc3)oc2c1)N1CCCCC1,IC50,[11],62.5 µM
same,IC50,[12],0.094 µM
same,Ratio IC50,[13],665
